Legend:
Type in all cases: cell-based, human
NF-κB = test: Nuclear translocation of NF-κB by EMSA; settings: DDR1b-overexpressing cells on collagen-coated plates
Method: Nuclear translocation of NF-κB was examined by EMSA. Nuclear extracts were prepared by a method previously reported (Ueda et al., J. Biol. Chem. 272:31092, 1997), and aliquots were frozen at −80° C. For EMSA, end-labeled ^32P-oligonucleotide probes corresponding to the NF-KB binding site of the Ig κ-chain (5′-[…]-3′) (SEQ ID NO: 15) or MCP-1 (A2 site; 5′-[…]-3′) (SEQ ID NO: 16) gene were used. Each probe was incubated with 5 μg of nuclear extracts in 20 μl of binding cocktail (50 mM Tris-HCl, pH 7.4, 25 MM MgCl2, 0.5 mM DTT, 50% glycerol) at 4° C. for 15 minutes. The DNA-protein complexes were resolved on a 5% polyacrylanide gel. The dried gels were exposed to X-ray films.

[1] = system: monocyte-derived dendritic cells; test: Flow cytometry of CD80, CD83, CD86, HLA-DR on monocyte-derived DCs
Method: Human PBMC were isolated from leukapheresis preparations obtained by the Blood Bank, Clinical Center, National Institutes of Health (Bethesda, Md.). The leukocyte-rich preparation was overlaid on Accu-prep in 50 ml tubes and the tubes were centrifuged at 800×g for 20 min at room temperature. PBMC fractions were collected, washed once with PBS at room temperature and twice with complete medium at 4° C. and resuspended in the same medium. Monocytes were further purified by using iso-osmotic Percoll gradient. At this stage, the purity of monocytes was higher than 90%. The cells (5×10^5/ml) were allowed to adhere to the surface of 6-well plates. After a 5 hour incubation at 37° C., non-adherent cells were removed, and remaining adherent cells were subjected to the DC (Baggiolini et al., Adv. Immunol. 55:97-179, 1993). Over 95% of the adherent cells were positive for CD14 by flow cytometry analysis. Monocytes were briefly resuspended at a concentration of 1×10^6 cells/ml and cultured in complete medium containing 50 ng/ml GM-CSF and 50 ng/ml IL-4. Cells were cultured for 7 days, with cytokine added every second day, to obtain a population of immature monocyte-derived dendritic cells (DC). For maturation, immature DC (iDC) were treated with TNF-α (50 ng/ml) from day 5 to day 7. Mouse monoclonal anti-DDR1 antibody (513) (5 μg/ml) was used to specifically activate DDR1. Unrelated mouse monoclonal IgM was used as a control.
Monocytes were plated at a density of 5×10^6 cell/ml and incubated for 5 days in the presence of 50 ng/ml GM-CSF and 50 ng/ml IL-4. Cells were cultured for 7 days, with cytokine added every second day, to obtain a population of immature monocyte-derived DCs. For maturation, iDCs were incubated with TNF-α (50 ng/ml) from day 5 to day 7. For activation of DDR1 on DCs, the cells were incubated in the presence of either agonistic anti-DDR1 IgM (513) or control IgM, and the expression of CD80, CD83, CD86, and HLA-DR was measured using a flow cytometer.
A hundred thousand cells were resuspended in 50 μl of cold PBS containing 0.1% sodium azide, […] bovine serum albumin (BSA) and 200 μg/ml of human IgG, and then incubated for 10 minutes on ice. Subsequently, the cells were incubated with antibodies against CD80, CD83, CD86 or HLA-DR for 15 minutes on ice, and followed by washing with PBS. After washing, cells were incubated with FITC-conjugated goat anti-mouse IgG for 15 minutes on ice. At the end of the incubation, PI was added to 100 μM. Cells were washed by PBS, and subsequently analyzed on a FACscan (Becton Dickinson). Dead cells, determined by their PI-staining, were gated out. Results were processed using CellQuest software (Becton Dickinson). For the experiments of p38 MAP kinase inhibition, iDC were pre-treated with SB203580, or DMSO for 30 minutes, and then cultured with TNF-α alone, TNF-α plus 513 agonistic anti-DDR1 IgM (5 μg/ml), or TNF-α plus control IgM (5 μg/ml). These experiments were repeated with cells from three different donors.

[2] = system: monocyte-derived dendritic cells; test: Allogeneic MLR with monocyte-derived DCs
Method: FIG. 9 is a graph showing the effect of DDR1 antibody on the antigen presenting capacity of DCs.
The most important function of DCs is to present antigens to naïve T cells. […] Human T cells were purified from PBMCs of healthy donors by magnetic separation using CD3^+microbeads (Miltenyi Biotech Inc., Auburn, Calif.). T cells (1×10^5) were placed in 96-well plates with increasing numbers of DC (5×10^2−1×10^4 cells) in 200 μl culture medium. On day four, 1 μCi/well of [^3H]thymidine was added, and incorporation of radioactivity was measured after 15 hours of incubation. All tests were performed in triplicate.

[3] = iDC pre-treated, TNF-α-induced maturation with agonistic anti-DDR1 IgM or control IgM
[4] = DC maturation induced with TNF-α 50 ng/ml

`C[S+]([O-])c1ccc(-c2nc(-c3ccncc3)c(-c3ccc(F)cc3)[nH]2)cc1` (stereo not drawn) [SB203580] was tested, and the “increased NF-κB/DNA binding” value (NF-κB) was “not affected”, the “expression of CD80” value [1, 3] was “almost completely inhibited” and the “expression of CD83” value [1, 3] was “almost completely inhibited”. For the same molecule, the “expression of CD86” value [1, 3] was “almost completely inhibited”, the “expression of HLA-DR” value [1, 3] was “almost completely inhibited” and the “capacity to activate allogeneic MLR of TNF-α-induced DCs and its up-regulation by DDR1 activation” value [2] was “almost completely abrogated”.
TNF-α was tested, and the “expression of CD80” value [1, 4] was “up-regulated”, the “expression of CD83” value [1, 4] was “up-regulated” and the “expression of CD86” value [1, 4] was “up-regulated”. For the same molecule, the “expression of HLA-DR” value [1, 4] was “up-regulated” and the “allogeneic MLR by induced mDCs” value ([2]; cell number-dependent) was “markedly activated”.
collagen was tested, and the “amount of NF-κB/DNA complex” value (NF-κB) was “significantly increased”.
